Results from article PMC9428768 (RSC Chemical Biology, 2022).

Columns and labels:
HeLa cells = experiment: MTT assay; assay type: cell-based; settings: Homo sapiens, 48 h, read-out: Cytotoxicity (HeLa cells)
PBD = settings: cited from earlier work

Compound | IC50 (HeLa cells) | less PBD-binding affinity than peptide 2 (PBD)
CC[C@@H]1C(=O)N(C)c2cnc(Nc3ccc(C(=O)NC4CCN(C)CC4)cc3OC)nc2N1C1CCCC1 [BI2536] | 32 ± 1.6 nM | –
PLHSpT [Ligand 1] | – | approximately 1000 fold
